Measured values taken from patent US20250214977A1, “STAT6 INHIBITORS AND USES THEREOF” (Kymera Therapeutics, Inc., priority 2024, published 2025).

System: Phosphorylation of STAT6 in human A549 cells
Assay: Phosphorylated STAT6 (pSTAT6) flow cytometry assay in human A549 cells
Type: cell-based
Conditions: read-out: STAT6 IL4 pSTAT6 assay in A549 cells: Average IC50
From the text: Example 3. Phosphorylated STAT6 (pSTAT6) Flow Cytometry Assay in Human A549 Cells
Phosphorylation of STAT6 in human A549 cells was quantitatively measured using flow cytometry technology.

Compound	IC50 [µM]
COc1ccccc1-c1cc(C2=CCCN(C(=O)CCn3ccnn3)C2)c(F)c2[nH]c(C(=O)N3CCN(c4[nH]ncc4OC)CC3)cc12 [Example I-508]	< 0.1
CN(C)C(=O)c1cc2cc(C3=CCCN(C(=O)CCn4ccnn4)C3)cc(-c3cccc4c3CN(C)C4=O)c2o1 [Example I-845]	< 0.1
COC(=O)CC(=O)N1CCC=C(c2cc3cc(C(=O)N4Cc5cnn(C)c5C4)cc(-c4cccnc4OC)c3n2CC2CC2)C1 [Example I-795]	> 100
COc1cc(F)cnc1N1CCN(C(=O)c2cc3c(-c4cccc(OC(C)C)c4)cc(C4=CCCN(C(=O)CCn5ccnn5)C4)c(F)c3[nH]2)CC1 [Example I-638]	< 0.1
COc1cccc(N2CCN(C(=O)c3cc4c(-c5cc(F)c(F)cc5OC)cc(C5=CCCN(C(=O)CCn6ccnn6)C5)c(F)c4[nH]3)CC2)n1 [Example I-590]	< 0.1
CCc1ccncc1-c1cc(C2=CCCN(C(=O)CCn3ccnn3)C2)c(F)c2[nH]c(C(=O)N3CCN(c4ccccc4OC)CC3)cc12 [Example I-471]	< 0.1
COc1ccccc1N1CCN(C(=O)c2cc3c(-c4cnccc4OC(C)C)cc(C4=CCCN(C(=O)CCn5ccnn5)C4)c(F)c3[nH]2)CC1 [Example I-403]	> 100
COc1ccccc1-c1cc(C2=CCCN(C(=O)CCn3ccnn3)C2)c(F)c2[nH]c(C(=O)N3CCN(c4cc(=O)[nH]cc4F)CC3)cc12 [Example I-779]	< 0.1
COc1ccccc1-c1cc(C2=CCCN(C(=O)CCn3ccnn3)C2)c(F)c2[nH]c(C(=O)N3CCN(c4ncccn4)CC3)cc12 [Example I-863]	< 0.1
CCc1nc(C)ccc1-c1cc(C(=O)N2Cc3cnn(CC)c3C2)cc2cc(C3=CCCN(C(=O)CCn4ccnn4)C3)n(CC3CC3)c12 [Example I-535]	> 100
CCc1nc(C)ccc1-c1cc(C(=O)N2CCN(c3ccc(F)cc3OC)CC2)cc2cc(C3=CCCN(C(=O)CCn4ccnn4)C3)n(CC3CC3)c12 [Example I-534]	> 100
(S)-1-(5-(7-fluoro-2-(4-(5-fluoro-3-methoxypyridin-2-yl)piperazine-1-carbonyl)-4-(1-methylpyrrolidin-3-yl)-1H-indol-6-yl)-3,6-dihydropyridin-1(2H)-yl)-3-(1H-1,2,3-triazol-1-yl)propan-1-one [Example I-811]	< 0.1
CNc1cnc(N2CCN(C(=O)c3cc4c(-c5ccccc5OC)cc(C5=CCCN(C(=O)CCn6ccnn6)C5)c(F)c4[nH]3)CC2)c(OC)c1 [Example I-353]	< 0.1
CCCN(C)C(=O)c1cc2cc(C3=CCCN(C(=O)CCn4ccnn4)C3)ccc2o1 [Example I-817]	0.1 to 1
CCc1nc(C)ccc1-c1cc(C(=O)N2CCN(c3nc(C)c(F)cc3OC)CC2)cc2cc(C3=CCCN(C(=O)CCn4ccnn4)C3)n(CC3CC3)c12 [Example I-546]	> 100
CN(C)C(=O)c1cc2cc(C3=CCCN(C(=O)CCc4cccnn4)C3)ccc2o1 [Example I-820]	0.1 to 1
COc1cccnc1N1CCN(C(=O)c2cc3c(-c4ccc(OC)c5c4OCCO5)cc(C4=CCCN(C(=O)CCn5ccnn5)C4)c(F)c3[nH]2)CC1 [Example I-583]	> 100
CCc1cc(C)ncc1-c1cc(C2=CCCN(C(=O)CCn3cccn3)C2)c(F)c2[nH]c(C(=O)N3Cc4cnn(CC)c4C3)cc12 [Example I-537]	< 0.1
COc1ccncc1-c1cc(C2=CCCN(C(C)=O)C2)c(F)c2sc(C(=O)N(C)C)cc12 [Example I-555]	0.1 to 1
CN(C)C(=O)c1cc2c(F)c(C3=CCCN(C(=O)[C@H]4Cc5ccccc5CN4C=O)C3)ccc2o1 (single isomer, unassigned) [Example I-376]	> 100
COc1ccccc1-c1cc(C2=CCCN(C(=O)CCn3ccnn3)C2)c(F)c2[nH]c(C(=O)N3CCN(c4c(F)cccc4OC)CC3)cc12 [Example I-367]	< 0.1
COc1cc(F)cnc1N1CCN(C(=O)c2cc3c(-c4cc(O)cc5ccccc45)cc(C4=CCCN(C(=O)CCn5ccnn5)C4)c(F)c3[nH]2)CC1 [Example I-659]	< 0.1
COc1ccccc1-c1cc(C2=CCCN(C(=O)CCn3ccnn3)C2)c(F)c2[nH]c(C(=O)N3CCN(c4ccc(C)cc4)CC3)cc12 [Example I-860]	0.1 to 1
CN(C)C(=O)c1cc2cc(C3=CCCN(C(=O)CCn4ccnn4)C3)cc(-c3ccc4c(c3)NC(=O)C4)c2o1 [Example I-869]	< 0.1
CCc1ccc(-c2cc(C(=O)N3Cc4cnn(CC)c4C3)cc3cc(C4=CCCN(C(=O)C(=O)O)C4)n(CC4CC4)c23)c(C)n1 [Example I-798]	> 100
COc1cc(F)cnc1N1CCN(C(=O)c2cc3c(-c4cnc5c(C)cccc5c4)cc(C4=CCCN(C(=O)CCn5ccnn5)C4)c(F)c3[nH]2)CC1 [Example I-672]	< 0.1
COc1cc(F)cnc1N1CCN(C(=O)c2cc(-c3cccnc3C3CC3)c3c(c2)cc(C2=CCCN(C(=O)CCn4ccnn4)C2)n3CC2CC2)CC1 [Example I-728]	> 100

Now from value to compound:

IC50 [µM]	Compound
< 0.1	CN(C)C(=O)c1ccc2c(c1)cc(C1=CCCN(C(=O)CCn3ccnn3)C1)n2CC1CC1 [Example I-1096]
< 0.1	COc1ccccc1-c1cc(C2=CCCN(C(=O)CCn3ccnn3)C2)c(F)c2[nH]c(C(=O)N3CCN(c4nccc(-c5cn(C)c6ccccc56)n4)CC3)cc12 [Example I-906]
< 0.1	COc1ccccc1-c1cc(C2=CCCN(C(=O)CCn3ccnn3)C2)c(F)c2[nH]c(C(=O)N3CCN(c4cc(OC)c5c(c4)nnn5C)CC3)cc12 [Example I-962]
< 0.1	COc1cc(F)cnc1N1CCN(C(=O)c2cc3c(-c4ccc(C(C)(C)C#N)cc4)cc(C4=CCCN(C(=O)CCn5ccnn5)C4)c(F)c3[nH]2)CC1 [Example I-1142]
< 0.1	COc1ncccc1-c1cc(C2=CCCN(C(C)=O)C2)c(F)c2[nH]c(C(=O)N(C)C)cc12 [Example I-879]
< 0.1	CN(C)C(=O)c1cc2cc(C3=CCCN(C(=O)CCn4ccnn4)C3)cc(NCC3CC(F)(F)C3)c2o1 [Example I-873]
< 0.1	COc1cc(F)cnc1N1CCN(C(=O)c2cc3c(C4=CCN(Cc5ccccc5)CC4)cc(C4=CCCN(C(=O)CCn5ccnn5)C4)c(F)c3[nH]2)CC1 [Example I-1132]
< 0.1	COCOc1ccc(-c2cc(C3=CCCN(C(=O)CCn4ccnn4)C3)c(F)c3[nH]c(C(=O)N4CCN(c5ncc(F)cc5OC)CC4)cc23)cc1 [Example I-1147]
0.1 to 1	COc1ccccc1-c1cc(C2=CCCN(C(=O)CCn3ccnn3)C2)c(F)c2[nH]c(C(=O)N3CCN(c4ccc5nn(C)cc5c4C)CC3)cc12 [Example I-945]
< 0.1	COc1ccccc1-c1cc(C2=CCCN(C(=O)CCn3ccnn3)C2)c(F)c2[nH]c(C(=O)N3CCN(c4cc(OC)c5ccnn5c4)CC3)cc12 [Example I-917]
< 0.1	COc1cc(F)cnc1N1CCN(C(=O)c2cc3c(C4=CCCC4)cc(C4=CCCN(C(=O)CCn5ccnn5)C4)c(F)c3[nH]2)CC1 [Example I-1134]
0.1 to 1	COc1ccccc1-c1cc(C2=CCCN(C(=O)CCn3ccnn3)C2)c(F)c2[nH]c(C(=O)N3CCN(c4cccc(OC(F)F)n4)CC3)cc12 [Example I-927]
< 0.1	COc1cc(F)cnc1N1CCN(C(=O)c2cc3c(-c4ccc(-c5ccncc5)cc4)cc(C4=CCCN(C(=O)CCn5ccnn5)C4)c(F)c3[nH]2)CC1 [Example I-1118]
< 0.1	COc1cc(F)cnc1N1CCN(C(=O)c2cc3c(-c4ccc(CN5CCOCC5)nc4)cc(C4=CCCN(C(=O)CCn5ccnn5)C4)c(F)c3[nH]2)CC1 [Example I-1137]
< 0.1	COc1ccccc1-c1cc(C2=CCCN(C(=O)CCn3ccnn3)C2)c(F)c2[nH]c(C(=O)N3CCN(Cc4nc(C)cs4)CC3)cc12 [Example I-1185]
0.1 to 1	COc1cccc(F)c1-c1cc(C2=CCCN(C(C)=O)C2)c(F)c2cc(C(=O)N(C)C)oc12 [Example I-1105]
< 0.1	COc1cccnc1N1CCN(C(=O)c2cc3c(C4=CCN(C)CC4C)cc(C4=CCCN(C(=O)CCn5ccnn5)C4)c(F)c3[nH]2)CC1 (centres unmarked) [Example I-1150]
< 0.1	COc1cc(F)cnc1N1CCN(C(=O)c2cc3c(-c4ccc(C(F)F)cc4)cc(C4=CCCN(C(=O)CCn5ccnn5)C4)c(F)c3[nH]2)CC1 [Example I-1160]
< 0.1	CN(C)C(=O)c1cc2cc(C3=CCCN(C(=O)CCn4ccnn4)C3)cc(NCc3ccc(C(F)(F)F)nc3)c2o1 [Example I-893]
0.1 to 1	COc1ccccc1-c1cc(C2=CCCN(C(=O)CCn3ccnn3)C2)c(F)c2[nH]c(C(=O)N3CC4CN(c5ncccc5OC)CC4C3)cc12 (centres unmarked) [Example I-1035]
0.1 to 1	CCC1CCCCC1c1cc(C2=CCCN(C(=O)CCn3ccnn3)C2)c(F)c2[nH]c(C(=O)N3CCN(c4ncc(F)cc4OC)CC3)cc12 (single isomer, unassigned) [Example I-1175]
< 0.1	COc1ccccc1-c1cc(C2CCCN(C(=O)CCn3ccnn3)C2)c(F)c2[nH]c(C(=O)N(C)C)cc12 (centres unmarked) [Example I-1193]
< 0.1	COc1ccccc1-c1cc(C2=CCCN(C(=O)CCn3ccnn3)C2)c(F)c2[nH]c(C(=O)N3CCN(c4ccc[nH]c4=O)CC3)cc12 [Example I-1003]
< 0.1	COc1ccccc1-c1cc(C2=CCCN(C(=O)CCn3ccnn3)C2)c(F)c2[nH]c(C(=O)N3CCN(c4cc5ccccc5nc4O)CC3)cc12 [Example I-952]
0.1 to 1	CCc1ccccc1N1CCN(C(=O)c2cc3c(-c4ccccc4OC)cc(C4=CCCN(C(=O)CCn5ccnn5)C4)c(F)c3[nH]2)CC1 [Example I-969]
< 0.1	COc1ccccc1-c1cc(C2=CCCN(C(=O)CCn3ccnn3)C2)c(F)c2[nH]c(C(=O)N3CCN(c4ccnc5c4CC(=O)N5)CC3)cc12 [Example I-914]
0.1 to 1	COc1ccccc1-c1cc(C2=CCCN(C(=O)CCn3ccnn3)C2)c(F)c2[nH]c(C(=O)N3CCN(c4cc(C)cc(Br)c4OC)CC3)cc12 [Example I-964]
< 0.1	COc1ccccc1-c1cc(C2=CCCN(C(=O)CCn3ccnn3)C2)c(F)c2[nH]c(C(=O)N3CCN(c4cnc(SC)n5cnnc45)CC3)cc12 [Example I-910]
< 0.1	COc1ccccc1-c1cc(C2=CCCN(C(=O)CCn3ccnn3)C2)c(F)c2[nH]c(C(=O)N3CCN(CC4CCCO4)CC3)cc12 (centres unmarked) [Example I-1184]
